# Biological target: T1, GLP-1 Receptor (Homo sapiens, UniProt P43220)
# T1 construct: host or cells: HEK293/GLP1R/CRE-LUC (HEK293/CRE-Luc stably expressing the GLP-1 receptor)
# Test: GLP-1R agonist cAMP stimulation assay (HEK293/GLP1R/CRE-LUC cells, Cisbio cAMP dynamic 2 kit);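 also: compounds tested in half-log serial dilution, cAMP detected with cAMP-d2 and anti-cAMP cryptate antibody reagents after 1 h at room temperature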
# Assay type: cell-based
# Conditions: HEK293/CRE-Luc cell line stably expressing the GLP-1 Receptor; 1000 cells/well; 30 min at 37° C.; 0.5 mM IBMX, 0.1% BSA; read-out: GLP1R cAMP Stimulation DR: EC50
# T1 sequence (P43220 24-463, species assumed): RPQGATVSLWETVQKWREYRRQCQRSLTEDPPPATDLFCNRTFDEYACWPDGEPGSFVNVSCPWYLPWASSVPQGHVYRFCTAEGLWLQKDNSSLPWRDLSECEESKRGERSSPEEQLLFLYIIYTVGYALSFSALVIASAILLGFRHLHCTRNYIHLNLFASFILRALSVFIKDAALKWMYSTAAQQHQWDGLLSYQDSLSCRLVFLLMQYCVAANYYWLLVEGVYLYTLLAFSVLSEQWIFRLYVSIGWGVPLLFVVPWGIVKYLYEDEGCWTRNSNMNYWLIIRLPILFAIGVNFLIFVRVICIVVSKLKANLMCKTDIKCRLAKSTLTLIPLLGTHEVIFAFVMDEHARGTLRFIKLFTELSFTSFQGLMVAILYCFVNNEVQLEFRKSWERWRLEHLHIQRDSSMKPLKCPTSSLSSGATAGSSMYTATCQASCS
row,Compound,EC50 [nM]
1,"CC1(c2ccc(Cl)cc2F)Oc2cccc(C3CCN(Cc4ncc(/C=C/C(=O)O)n4Cc4cccc(Cl)c4)CC3)c2O1 (stereo not shown) [Compound 150, (E)-3-(2-((4-(2-(4-chloro-2-fluorophenyl)-2-methylbenzo[d][1,3]dioxol-4-yl)piperidin-1-yl)methyl)-1-(3-chlorobenzyl)-1H-imidazol-5-yl)acrylic acid]",0.054
2,"CC1(c2ccc(Cl)cc2F)Oc2cccc(C3CCN(Cc4ncc(/C=C/C(=O)O)n4Cc4ccccc4)CC3)c2O1 (stereo not shown) [Compound 151, (E)-3-(1-benzyl-2-((4-(2-(4-chloro-2-fluorophenyl)-2-methylbenzo[d][1,3]dioxol-4-yl)piperidin-1-yl)methyl)-1H-imidazol-5-yl)acrylic acid]",0.043
3,"C[C@@H](c1ccccc1)n1c(/C=C/C(=O)O)cnc1CN1CCC(c2cccc3c2OC(C)(c2ccc(Cl)cc2F)O3)CC1 (stereo partly drawn) [Compound 152, (E)-3-(2-((4-(2-(4-chloro-2-fluorophenyl)-2-methylbenzo[d][1,3]dioxol-4-yl)piperidin-1-yl)methyl)-1-((S)-1-phenylethyl)-1H-imidazol-5-yl)acrylic acid]",0.53
4,"C[C@H](c1ccccc1)n1c(/C=C/C(=O)O)cnc1CN1CCC(c2cccc3c2OC(C)(c2ccc(Cl)cc2F)O3)CC1 (stereo partly drawn) [Compound 153, (E)-3-(2-((4-(2-(4-chloro-2-fluorophenyl)-2-methylbenzo[d][1,3]dioxol-4-yl)piperidin-1-yl)methyl)-1-((R)-1-phenylethyl)-1H-imidazol-5-yl)acrylic acid]",18
5,"CC1(c2ccc(Cl)cc2F)Oc2cccc(C3CCN(Cc4ncc(/C=C/C(=O)O)n4C[C@H]4CCOC4)CC3)c2O1 (stereo partly drawn) [Compound 154, (E)-3-(2-((4-(2-(4-chloro-2-fluorophenyl)-2-methylbenzo[d][1,3]dioxol-4-yl)piperidin-1-yl)methyl)-1-(((R)-tetrahydrofuran-3-yl)methyl)-1H-imidazol-5-yl)acrylic acid]",0.012
6,"C[C@]1(c2ccc(Cl)cc2F)Oc2cccc(C3CCN(Cc4ncc(/C=C/C(=O)O)n4C[C@H]4CCOC4)CC3)c2O1 [Compound 155, (E)-3-(2-((4-((S)-2-(4-chloro-2-fluorophenyl)-2-methylbenzo[d][1,3]dioxol-4-yl)piperidin-1-yl)methyl)-1-(((R)-tetrahydrofuran-3-yl)methyl)-1H-imidazol-5-yl)acrylic acid]",0.0054
7,"CC1(c2ccc(Cl)cc2F)Oc2cccc(C3CCN(Cc4ncc(/C=C/C(=O)O)n4C[C@@H]4CCOC4)CC3)c2O1 (stereo partly drawn) [Compound 156, (E)-3-(2-((4-(2-(4-chloro-2-fluorophenyl)-2-methylbenzo[d][1,3]dioxol-4-yl)piperidin-1-yl)methyl)-1-(((S)-tetrahydrofuran-3-yl)methyl)-1H-imidazol-5-yl)acrylic acid]",0.086
8,"CC1(c2ccc(Cl)cc2F)Oc2cccc(C3CCN(Cc4ncc(/C=C/C(=O)O)n4CC4(F)COC4)CC3)c2O1 (stereo not shown) [Compound 157, (E)-3-(2-((4-(2-(4-chloro-2-fluorophenyl)-2-methylbenzo[d][1,3]dioxol-4-yl)piperidin-1-yl)methyl)-1-((3-fluorooxetan-3-yl)methyl)-1H-imidazol-5-yl)acrylic acid]",0.26
9,"CC(C)OCCn1c(/C=C/C(=O)O)cnc1CN1CCC(c2cccc3c2OC(C)(c2ccc(Cl)cc2F)O3)CC1 (stereo not shown) [Compound 158, (E)-3-(2-((4-(2-(4-chloro-2-fluorophenyl)-2-methylbenzo[d][1,3]dioxol-4-yl)piperidin-1-yl)methyl)-1-(2-isopropoxyethyl)-1H-imidazol-5-yl)acrylic acid]",0.056
10,"COC(C)Cn1c(/C=C/C(=O)O)cnc1CN1CCC(c2cccc3c2OC(C)(c2ccc(Cl)cc2F)O3)CC1 (stereo not shown) [Compound 159, (E)-3-(2-((4-(2-(4-chloro-2-fluorophenyl)-2-methylbenzo[d][1,3]dioxol-4-yl)piperidin-1-yl)methyl)-1-(2-methoxypropyl)-1H-imidazol-5-yl)acrylic acid]",0.051
11,"CC1(c2ccc(Cl)cc2F)Oc2cccc(C3CCN(Cc4ncc(/C=C/C(=O)O)n4C[C@H]4CCCO4)CC3)c2O1 (stereo partly drawn) [Compound 160, (E)-3-(2-((4-(2-(4-chloro-2-fluorophenyl)-2-methylbenzo[d][1,3]dioxol-4-yl)piperidin-1-yl)methyl)-1-(((R)-tetrahydrofuran-2-yl)methyl)-1H-imidazol-5-yl)acrylic acid]",0.12
12,"CC1(c2ccc(Cl)cc2F)Oc2cccc(C3CCN(Cc4ncc(/C=C/C(=O)O)n4CCS(C)(=O)=O)CC3)c2O1 (stereo not shown) [Compound 161, (E)-3-(2-((4-(2-(4-chloro-2-fluorophenyl)-2-methylbenzo[d][1,3]dioxol-4-yl)piperidin-1-yl)methyl)-1-(2-(methylsulfonyl)ethyl)-1H-imidazol-5-yl)acrylic acid]",0.18
13,"CC1(c2ccc(Cl)cc2F)Oc2cccc(C3CCN(Cc4ncc(/C=C/C(=O)O)n4CC4CC4)CC3)c2O1 (stereo not shown) [Compound 162, (E)-3-(2-((4-(2-(4-chloro-2-fluorophenyl)-2-methylbenzo[d][1,3]dioxol-4-yl)piperidin-1-yl)methyl)-1-(cyclopropylmethyl)-1H-imidazol-5-yl)acrylic acid]",0.14
14,"CC1(c2ccc(Cl)cc2F)Oc2cccc(C3CCN(Cc4ncc(/C=C/C(=O)O)n4[C@@H]4CCOC4)CC3)c2O1 (stereo partly drawn) [Compound 163, (E)-3-(2-((4-(2-(4-chloro-2-fluorophenyl)-2-methylbenzo[d][1,3]dioxol-4-yl)piperidin-1-yl)methyl)-1-((R)-tetrahydrofuran-3-yl)-1H-imidazol-5-yl)acrylic acid]",0.13
15,"CC1(c2ccc(Cl)cc2F)Oc2cccc(C3CCN(Cc4ncc(/C=C/C(=O)O)n4CC4CCC4(F)F)CC3)c2O1 (stereo not shown) [Compound 167, (E)-3-(2-((4-(2-(4-chloro-2-fluorophenyl)-2-methylbenzo[d][1,3]dioxol-4-yl)piperidin-1-yl)methyl)-1-((2,2-difluorocyclobutyl)methyl)-1H-imidazol-5-yl)acrylic acid]",0.065
16,"CC1(c2ccc(Cl)cc2F)Oc2cccc(C3CCN(Cc4ncc(/C=C/C(=O)O)n4CCOC(F)F)CC3)c2O1 (stereo not shown) [Compound 168, (E)-3-(2-((4-(2-(4-chloro-2-fluorophenyl)-2-methylbenzo[d][1,3]dioxol-4-yl)piperidin-1-yl)methyl)-1-(2-(difluoromethoxy)ethyl)-1H-imidazol-5-yl)acrylic acid]",0.046

# The next lines start with the values.
row,EC50 [nM],Compound
1,0.33,"Cn1c(/C=C/C(=O)O)cnc1CN1CCC(c2cccc3c2OC(C)(c2ccc(Cl)cc2F)O3)CC1 (stereo not shown) [Compound 164, (E)-3-(2-((4-(2-(4-chloro-2-fluorophenyl)-2-methylbenzo[d][1,3]dioxol-4-yl)piperidin-1-yl)methyl)-1-methyl-1H-imidazol-5-yl)acrylic acid]"
2,0.014,"CC1(c2ccc(Cl)cc2F)Oc2cccc(C3CCN(Cc4ncc(/C=C/C(=O)O)n4CC4CCS4(=O)=O)CC3)c2O1 (stereo not shown) [Compound 165, (E)-3-(2-((4-(2-(4-chloro-2-fluorophenyl)-2-methylbenzo[d][1,3]dioxol-4-yl)piperidin-1-yl)methyl)-1-((1,1-dioxidothietan-2-yl)methyl)-1H-imidazol-5-yl)acrylic acid]"
3,0.069,"COC1(Cn2c(/C=C/C(=O)O)cnc2CN2CCC(c3cccc4c3OC(C)(c3ccc(Cl)cc3F)O4)CC2)CCC1 (stereo not shown) [Compound 166, (E)-3-(2-((4-(2-(4-chloro-2-fluorophenyl)-2-methylbenzo[d][1,3]dioxol-4-yl)piperidin-1-yl)methyl)-1-((1-methoxycyclobutyl)methyl)-1H-imidazol-5-yl)acrylic acid]"
4,0.16,"C[C@@H](Cn1c(/C=C/C(=O)O)cnc1CN1CCC(c2cccc3c2O[C@@](C)(c2ccc(Cl)cc2F)O3)CC1)OC(F)F [Compound 169a, (E)-3-(2-((4-((S)-2-(4-chloro-2-fluorophenyl)-2-methylbenzo[d][1,3]dioxol-4-yl)piperidin-1-yl)methyl)-1-((S)-2-(difluoromethoxy)propyl)-1H-imidazol-5-yl)acrylic acid]"
5,0.015,"C[C@H](Cn1c(/C=C/C(=O)O)cnc1CN1CCC(c2cccc3c2O[C@@](C)(c2ccc(Cl)cc2F)O3)CC1)OC(F)F [Compound 169b, (E)-3-(2-((4-((S)-2-(4-chloro-2-fluorophenyl)-2-methylbenzo[d][1,3]dioxol-4-yl)piperidin-1-yl)methyl)-1-((R)-2-(difluoromethoxy)propyl)-1H-imidazol-5-yl)acrylic acid]"
6,2.5,"C[C@@H](Cn1c(/C=C/C(=O)O)cnc1CN1CCC(c2cccc3c2O[C@@](C)(c2ccc(Cl)cc2F)O3)CC1)OC1CC1 [Compound 170a, (E)-3-(2-((4-((S)-2-(4-chloro-2-fluorophenyl)-2-methylbenzo[d][1,3]dioxol-4-yl)piperidin-1-yl)methyl)-1-((S)-2-cyclopropoxypropyl)-1H-imidazol-5-yl)acrylic acid]"
7,0.0067,"C[C@H](Cn1c(/C=C/C(=O)O)cnc1CN1CCC(c2cccc3c2O[C@@](C)(c2ccc(Cl)cc2F)O3)CC1)OC1CC1 [Compound 170b, (E)-3-(2-((4-((S)-2-(4-chloro-2-fluorophenyl)-2-methylbenzo[d][1,3]dioxol-4-yl)piperidin-1-yl)methyl)-1-((R)-2-cyclopropoxypropyl)-1H-imidazol-5-yl)acrylic acid]"
8,17,"CC1(C)C[C@H](Cn2c(/C=C/C(=O)O)cnc2CN2CCC(c3cccc4c3O[C@@](C)(c3ccc(Cl)cc3F)O4)CC2)CO1 [Compound 171b, (E)-3-(2-((4-((S)-2-(4-chloro-2-fluorophenyl)-2-methylbenzo[d][1,3]dioxol-4-yl)piperidin-1-yl)methyl)-1-(((R)-5,5-dimethyltetrahydrofuran-3-yl)methyl)-1H-imidazol-5-yl)acrylic acid]"
9,0.048,"CO[C@@H](C)Cn1c(/C=C/C(=O)O)cnc1CN1CCC(c2cccc3c2O[C@@](C)(c2ccc(Cl)cc2F)O3)CC1 [Compound 172a, (E)-3-(2-((4-((S)-2-(4-chloro-2-fluorophenyl)-2-methylbenzo[d][1,3]dioxol-4-yl)piperidin-1-yl)methyl)-1-((S)-2-methoxypropyl)-1H-imidazol-5-yl)acrylic acid]"
